# Patent publication US20260207758A1, “NA[…]-BASED CONJUGATE FOR […] INTO B CELL AND T CELL AND USES THEREOF” (priority 2022, published 2026)
# How the values were obtained:
# Format in all cases: cell-based
# [1] = test system: T cells (primary CD8+ cytotoxic T cells); experiment: Binding of Cy5.5-labeled targeting peptide, confocal microscopy; conditions: 100 μM Cy5.5-labeled peptide, 1 hour
# Description: (§1) A B cell/T cell targeting peptide (BTBP, SEQ ID NO: 17) was labeled with Cy5.5, and B cells (primary CD19+ B cells, PCS-800-018, ATCC) and T cells (primary CD8+ cytotoxic T cells, PCS-800-017, ATCC) were treated with 100 μM of the peptide for 1 hour. Then, the cells were fixed with 4% neutral formalin solution and measured using a confocal scanning microscope (LSM980 with Airyscan2, Carl Zeiss). […] Therefore, it was confirmed that BTBP effectively targeted both the B cells and the T cells.
# [2] = test system: B cells (primary CD19+ B cells); experiment: as above; conditions: 100 μM Cy5.5-labeled peptide, 1 hour
# Description: as §1
# [3] = test system: T cells (primary CD8+ cytotoxic T cells); experiment: Binding of Cy5.5-labeled targeting peptide, flow cytometry; conditions: Cy5.5-labeled peptide
# Description: as §1
# (§2) In addition, the cells were washed three times with DPBS containing 5% FBS, and cells bound with Cy5.5-labeled BTBP were analyzed using flow cytometry (FIG. 7). As a result, it could be confirmed that the peptide of SEQ ID NO: 17 bound to B cells and T cells.
# [4] = test system: B cells (primary CD19+ B cells); experiment: as above; conditions: Cy5.5-labeled peptide
# Description: as §1, §2
sequence,measurement,setting,value
HTHGAARVPDHR [BTBP],fluorescence intensity in cell membranes,[1],significantly increased
same,fluorescence intensity in cell membranes,[2],significantly increased
same,binding to cells by flow cytometry,[3],bound
same,binding to cells by flow cytometry,[4],bound
